Experimental data taken from patent US11639350B2, “Heteroaryldihydropyrimidine derivatives and methods of treating hepatitis B infections” (Janssen Pharmaceutica NV, priority 2018, dated 2023).
Where two headings read alike, the source gives them in different places.

How the values were obtained:
[1] = Cytotoxicity determination in HepG2.2.15 cells (CCK-8); format: cell-based; details: human, 6 days of compound treatment, CCK-8, highest concentration 100 μM
In short: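 CC50 is from CCK-8 absorbance (450 nm, 630 nm reference) after 2.5 h with reagent. Before that, compounds were applied for six days, top concentration 100 μM, eight threefold dilutions, one mid-course medium change, to stably HBV-integrated HepG2.2.15 cells plated at 5,000/well in 2% FBS.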

HBV = HBV inhibitory activity: HBV DNA in the culture medium of HepG2.2.15 cells by q-PCR; format: cell-based; details: Hepatitis B virus, HepG2.2.15, 144 h
In short: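 Supernatant HBV DNA quantified by q-PCR after a 6-day compound exposure, with one mid-course medium change, of HepG2.2.15 cells (stably integrated HBV; 40,000 per well, 2% FBS). Eight-point 3-fold series topped at 10 μM for antiviral EC50; separate plates of 5,000 cells per well with 100 μM top give CC50.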

[2] = HepG2.2.15 cells, 6 days of compound treatment, HBV DNA in culture medium by q-PCR, highest concentration 10 μM, read-out: EC50

| Compound | CC50 at 6 days [1] [µM] | EC50 (HBV; [2]) [µM] | EC50 (HBV) [µM] |
| --- | --- | --- | --- |
| COC(=O)C1=C(C2CCN(S(=O)(=O)C[C@H]3CC[C@H](C(=O)O)CC3)CC2)NC(c2nccs2)=NC1c1ccc(F)cc1Cl (stereo partly drawn) [Compound 422, trans-4-(((4-(6-(2-chloro-4-fluorophenyl)-5-(methoxycarbonyl)-2-(thiazol-2-yl)-3,6-dihydropyrimidin-4-yl)piperidinyl)sulfonyl)methyl)cyclohexane-1-carboxylic Acid] | 26.9 | 0.027 |  |
| CCOC(=O)C1=C(C2CCN(S(=O)(=O)C[C@H]3CC[C@H](C(=O)O)CC3)CC2)NC(c2nccs2)=NC1c1ccc(F)c(F)c1Cl (stereo partly drawn) [Compound 424, trans-4-(((4-(6-(2-chloro-3,4-difluorophenyl)-5-(ethoxycarbonyl)-2-(thiazol-2-yl)-3,6-dihydropyrimidin-4-yl)piperidinyl)sulfonyl)methyl)cyclohexane-1-carboxylic Acid] | 8.2 | 0.007 |  |
| COC(=O)C1=C(C2CCN(S(=O)(=O)C[C@H]3CC[C@H](C(=O)O)CC3)CC2)NC(c2nccs2)=NC1c1ccc(F)c(F)c1Cl (stereo partly drawn) [Compound 425, trans-4-(((4-(6-(2-chloro-3,4-difluorophenyl)-5-(methoxycarbonyl)-2-(thiazol-2-yl)-3,6-dihydropyrimidin-4-yl)piperidinyl)sulfonyl)methyl)cyclohexane-1-carboxylic Acid] | 13.3 | 0.006 |  |
| COC(=O)C1=C(C2CCC(S(=O)(=O)N3CCC3)CC2)NC(c2nccs2)=NC1c1ccc(F)c(F)c1Cl (stereo not shown) [Compound 430, methyl 6-(4-(azetidin-1-ylsulfonyl)cyclohexyl)-4-(2-chloro-3,4-difluorophenyl)-2-(thiazol-2-yl)-1,4-dihydropyrimidine-5-carboxylate] | 15.1 | 0.015 |  |
| COCCOCCOCCS(=O)(=O)NC12CC(C3=C(C(=O)OC)C(c4ccc(F)cc4Cl)N=C(c4nccs4)N3)(C1)C2 (stereo not shown) [Compound 440b, Methyl 4-(2-chloro-4-fluorophenyl)-6-(3-(2-(2-(2-methoxyethoxy)ethoxy)ethylsulfonamido)bicyclo[1.1.1]pentan-1-yl)-2-(thiazol-2-yl)-1,4-dihydropyrimidine-5-carboxylate] | 82.9 | 0.013 |  |
| COC(=O)C1=C(C2CCN(S(=O)(=O)C[C@H]3CC[C@H](C(=O)O)CC3)CC2)NC(c2nccs2)=NC1c1cccc(F)c1C (stereo partly drawn) [Compound 444b, (trans)-4-(((4-(6-(3-Fluoro-2-methylphenyl)-5-(methoxycarbonyl)-2-(thiazol-2-yl)-3,6-dihydropyrimidin-4-yl)piperidin-1-yl)sulfonyl)methyl)cyclohexanecarboxylic Acid] | 8.3 | 0.059 |  |
| COC(=O)C1=C(C2CCN(S(=O)(=O)C[C@H]3CC[C@H](C(=O)O)CC3)CC2)NC(c2nccs2)=NC1c1cccc(F)c1Cl (stereo partly drawn) [Compound 454, (trans)-4-(((4-(6-(2-Chloro-3-fluorophenyl)-5-(methoxycarbonyl)-2-(thiazol-2-yl)-3,6-dihydropyrimidin-4-yl)piperidin-1-yl)sulfonyl)methyl)-cyclohexanecarboxylic Acid] | 12 | 0.037 |  |
| COC(=O)C1=C(C2CCN(S(=O)(=O)CC34CC(C(=O)O)(C3)C4)CC2)NC(c2nccs2)=NC1c1ccc(F)c(F)c1Cl (stereo not shown) [Compound 456, 3-(((4-(6-(2-Chloro-3,4-difluorophenyl)-5-(methoxycarbonyl)-2-(thiazol-2-yl)-3,6-dihydropyrimidin-4-yl)piperidin-1-yl)sulfonyl)methyl)bicyclo[1.1.1]pentane-1-carboxylic Acid] | 19.5 | 0.043 |  |
| COC(=O)C1=C(C2CCN(S(=O)(=O)CCC(N)=O)CC2)NC(c2nccs2)=NC1c1ccc(F)cc1Cl (stereo not shown) [Compound 457, Methyl 6-(1-((3-amino-3-oxopropyl)sulfonyl)piperidin-4-yl)-4-(2-chloro-4-fluorophenyl)-2-(thiazol-2-yl)-1,4-dihydropyrimidine-5-carboxylate] | 63.4 | 0.054 |  |
| COC(=O)C1=C(C2CCN(S(=O)(=O)c3cnn(CCC(C)(C)O)c3)CC2)NC(c2nccs2)=NC1c1ccc(F)cc1Cl (stereo not shown) [Compound 458, Methyl 4-(2-chloro-4-fluorophenyl)-6-(1-((1-(3-hydroxy-3-methylbutyl)-1H-pyrazol-4-yl)sulfonyl)piperidin-4-yl)-2-(thiazol-2-yl)-1,4-dihydropyrimidine-5-carboxylate] | 15.5 | < 0.0046 |  |
| COCCOCCOCCS(=O)(=O)N1CCC(C2=C(C(=O)OC)C(c3ccc(F)cc3Cl)N=C(c3nccs3)N2)CC1 (stereo not shown) [Compound 459, Methyl 4-(2-chloro-4-fluorophenyl)-6-(1-((2-(2-(2-methoxyethoxy)ethoxy)ethyl)sulfonyl)piperidin-4-yl)-2-(thiazol-2-yl)-1,4-dihydropyrimidine-5-carboxylate] | 93.5 | 0.041 |  |
| COCCOCCOCCOCCS(=O)(=O)N1CCC(C2=C(C(=O)OC)C(c3ccc(F)cc3Cl)N=C(c3nccs3)N2)CC1 (stereo not shown) [Compound 460, Methyl 6-(1-(2,5,8,11-tetraoxatridecan-13-ylsulfonyl)piperidin-4-yl)-4-(2-chloro-4-fluorophenyl)-2-(thiazol-2-yl)-1,4-dihydropyrimidine-5-carboxylate] | 19.9 | 0.008 |  |
| CCOC(=O)C1=C(C2CCN(S(=O)(=O)c3cnn(CCCCCC(=O)O)c3)CC2)NC(c2nccs2)=NC1c1ccc(F)c(F)c1Cl (stereo not shown) [Compound 462, 6-(4-((4-(6-(2-Chloro-3,4-difluorophenyl)-5-(ethoxycarbonyl)-2-(thiazol-2-yl)-3,6-dihydropyrimidin-4-yl)piperidin-1-yl)sulfonyl)-1H-pyrazol-1-yl)hexanoic Acid] | 6.6 | 0.024 |  |
| CCOC(=O)C1=C(C2CCN(S(=O)(=O)c3cnn(CCCCC(=O)O)c3)CC2)NC(c2nccs2)=NC1c1ccc(F)c(F)c1Cl (stereo not shown) [Compound 463, 5-(4-((4-(6-(2-Chloro-3,4-difluorophenyl)-5-(ethoxycarbonyl)-2-(thiazol-2-yl)-3,6-dihydropyrimidin-4-yl)piperidin-1-yl)sulfonyl)-1H-pyrazol-1-yl)pentanoic acid] | 12.2 | 0.031 |  |
| COCCOCCS(=O)(=O)N1CCC(C2=C(C(=O)OC)C(c3ccc(F)cc3Cl)N=C(c3nccs3)N2)CC1 (stereo not shown) [Compound 464, Methyl 4-(2-chloro-4-fluorophenyl)-6-(1-((2-(2methoxyethoxy)ethyl)sulfonyl)piperidin-4-yl)-2-(thiazol-2-yl)-1,4-dihydropyrimidine-5-carboxylate] | 29.4 | < 0.0046 |  |
| COC(=O)C1=C(C2CCN(S(=O)(=O)c3cnn(Cc4ncco4)c3)CC2)NC(c2nccs2)=NC1c1ccc(F)c(F)c1Cl (stereo not shown) [Compound 465, Methyl 4-(2-chloro-3,4-difluorophenyl)-6-(1-((1-(oxazol-2-ylmethyl)-1H-pyrazol-4-yl)sulfonyl)piperidin-4-yl)-2-(thiazol-2-yl)-1,4-dihydropyrimidine-5-carboxylate] | 35.2 | 0.009 |  |
| COC(=O)C1=C(C2CCN(S(=O)(=O)CCOCCOCCO)CC2)NC(c2nccs2)=NC1c1ccc(F)cc1Cl (stereo not shown) [Compound 468, Methyl 4-(2-chloro-4-fluorophenyl)-6-(1-((2-(2-(2-hydroxyethoxy)ethoxy)ethyl)sulfonyl)piperidin-4-yl)-2-(thiazol-2-yl)-1,4-dihydropyrimidine-5-carboxylate] | 42.9 |  | 0.009 |
